From US8937078B2, “Quinazolinones as prolyl hydroxylase inhibitors” (Janssen Pharmaceutica NV, priority 2009, dated 2015)

Assays:
Hep-3B cells = assay: Cellular assay: erythropoietin secretion in Hep-3B cells; type: cell-based, human; details: Homo sapiens, Hep3B, 100 μM compound, 24 hours, percent of EPO secretion relative to assay control compound 7-[(4-Chloro-phenyl)-(5-methyl-isoxazol-3-ylamino)-methyl]-quinolin-8-ol, read-out: Cellular % EPO Stimulation
In short: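 Hep-3B cells in DMEM with 10% FBS, treated 24 h after plating with compounds at 100 μM final for a further 24 h. Secreted EPO in supernatant measured by MSD electrochemiluminescence sandwich immunoassay with anti-EPO detection antibody.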

human PHD2 (PHD2181-417) = biological target: T1, human PHD2 (PHD2181-417) (Homo sapiens, UniProt Q9GZT9); assay: PHD enzymatic assay ([14C]-succinic acid production); type: biochemical; details: PHD2181-417, HIF-1α peptide 10 μM, average of results; read-out: Enzyme pIC50 (converted)
T1 construct: Smt (SUMO) tag (cleaved yes); made in house; host or cells: E. coli BL21 (pBAD vector)
T1 sequence (Q9GZT9 181-417): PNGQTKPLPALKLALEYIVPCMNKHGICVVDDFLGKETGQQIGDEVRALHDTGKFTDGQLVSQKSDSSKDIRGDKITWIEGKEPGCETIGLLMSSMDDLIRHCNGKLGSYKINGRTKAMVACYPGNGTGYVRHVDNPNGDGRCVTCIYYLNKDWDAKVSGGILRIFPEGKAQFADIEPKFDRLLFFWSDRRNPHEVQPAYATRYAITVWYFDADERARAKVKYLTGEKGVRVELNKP
In short: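 Activity measured as [14C]-succinic acid formed from [5-14C]-2-oxoglutarate over 10 minutes, with peptide substrate at 10 μM, in Tris-HCl pH 7.5 buffer containing catalase, DTT and ascorbate. Unreacted oxoglutarate removed by DNP derivatisation; supernatant beta-counted.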

Row | SMILES | IC50 (human PHD2 (PHD2181-417)) [µM] | Emax at 100 µM (Hep-3B cells) [%]
1 | CN(C)c1ccc2nc(-n3cc(C(=O)O)cn3)[nH]c(=O)c2c1 [Example 125, 1-(6-Dimethylamino-4-oxo-3,4-dihydro-quinazolin-2-yl)-1H-pyrazole-4-carboxylic acid] | 0.0501 | 19
2 | O=C(O)c1cnn(-c2nc3ccccc3c(=O)[nH]2)c1 [Example 126, 1-(4-Oxo-3,4-dihydro-quinazolin-2-yl)-1H-pyrazole-4-carboxylic acid] | 0.0631 | 9
3 | O=C(O)c1cnn(-c2nc3cc(F)c(Br)cc3c(=O)[nH]2)c1 [Example 127, 1-(6-Bromo-7-fluoro-4-oxo-3,4-dihydro-quinazolin-2-yl)-1H-pyrazole-4-carboxylic acid] | 0.0316 | 9
4 | CCc1ccc2nc(-n3cc(C(=O)O)cn3)[nH]c(=O)c2c1 [Example 128, 1-(6-Ethyl-4-oxo-3,4-dihydro-quinazolin-2-yl)-1H-pyrazole-4-carboxylic acid] | 0.0398 | 53
5 | CCCc1ccc2nc(-n3cc(C(=O)O)cn3)[nH]c(=O)c2c1 [Example 129, 1-(4-Oxo-6-propyl-3,4-dihydro-quinazolin-2-yl)-1H-pyrazole-4-carboxylic acid] | 0.0316 | 94
6 | O=C(O)c1cnn(-c2nc3c(F)cc(Br)cc3c(=O)[nH]2)c1 [Example 130, 1-(6-Bromo-8-fluoro-4-oxo-3,4-dihydro-quinazolin-2-yl)-1H-pyrazole-4-carboxylic acid] | 0.0794 | 12
7 | O=C(O)c1cnn(-c2nc3cc(F)cc(F)c3c(=O)[nH]2)c1 [Example 131, 1-(5,7-Difluoro-4-oxo-3,4-dihydro-quinazolin-2-yl)-1H-pyrazole-4-carboxylic acid] | 0.0631 | 21
8 | O=C(O)c1cnn(-c2nc3cc(Cl)cc(Cl)c3c(=O)[nH]2)c1 [Example 132, 1-(5,7-Dichloro-4-oxo-3,4-dihydro-quinazolin-2-yl)-1H-pyrazole-4-carboxylic acid] | 0.126 | 16
9 | O=C(O)c1cnn(-c2nc3cc(F)ccc3c(=O)[nH]2)c1 [Example 133, 1-(7-Fluoro-4-oxo-3,4-dihydro-quinazolin-2-yl)-1H-pyrazole-4-carboxylic acid] | 0.0398 | 10
10 | O=C(O)c1cnn(-c2nc3cc(Br)ccc3c(=O)[nH]2)c1 [Example 134, 1-(7-Bromo-4-oxo-3,4-dihydro-quinazolin-2-yl)-1H-pyrazole-4-carboxylic acid] | 0.0501 | 18
11 | COc1ccc2c(=O)[nH]c(-n3cc(C(=O)O)cn3)nc2c1 [Example 135, 1-(7-Methoxy-4-oxo-3,4-dihydro-quinazolin-2-yl)-1H-pyrazole-4-carboxylic acid] | 0.0794 | 17
12 | O=C(O)c1cnn(-c2nc3cc(Cc4ccccc4)ccc3c(=O)[nH]2)c1 [Example 136, 1-(7-Benzyl-4-oxo-3,4-dihydro-quinazolin-2-yl)-1H-pyrazole-4-carboxylic acid] | 0.0316 | 23
13 | O=C(O)c1cnn(-c2nc3cc4c(cc3c(=O)[nH]2)OCCCO4)c1 [Example 137, 1-(4-Oxo-3,4,8,9-tetrahydro-7H-6,10-dioxa-1,3-diaza-cyclohepta[b]naphthalen-2-yl)-1H-pyrazole-4-carboxylic acid] | 0.0501 | 15
14 | O=C(O)c1cnn(-c2nc3c4c(ccc3c(=O)[nH]2)OCCO4)c1 [Example 138, 1-(8-Oxo-2,3,7,8-tetrahydro-1,4-dioxa-5,7-diaza-phenanthren-6-yl)-1H-pyrazole-4-carboxylic acid] | 0.251 | 40

More lines, main results first:

Row | IC50 (human PHD2 (PHD2181-417)) [µM] | SMILES | Emax at 100 µM (Hep-3B cells) [%]
15 | 0.0355 | O=C(O)c1cnn(-c2nc3cc4c(cc3c(=O)[nH]2)OCCO4)c1 [Example 139, 1-(4-Oxo-3,4,7,8-tetrahydro-[1,4]dioxino[2,3-g]quinazolin-2-yl)-1H-pyrazole-4-carboxylic acid] | 15
16 | 0.0355 | O=C(O)c1cnn(-c2nc3cc4c(cc3c(=O)[nH]2)CCC4)c1 [Example 140, 1-(4-Oxo-4,6,7,8-tetrahydro-3H-cyclopenta[g]quinazolin-2-yl)-1H-pyrazole-4-carboxylic acid] | 62
17 | 0.501 | O=C(O)c1cnn(-c2nc3c4c(ccc3c(=O)[nH]2)CCC4)c1 [Example 141, 1-(6-Oxo-2,3,6,7-tetrahydro-1H-7,9-diaza-cyclopenta[a]naphthalen-8-yl)-1H-pyrazole-4-carboxylic acid] | 25
18 | 0.251 | O=C(O)c1cnn(-c2nc3c4c(ccc3c(=O)[nH]2)CCCC4)c1 [Example 142, 1-(4-Oxo-3,4,7,8,9,10-hexahydro-benzo[h]quinazolin-2-yl)-1H-pyrazole-4-carboxylic acid] | 23
19 | 0.0316 | O=C(O)c1cnn(-c2nc3cc4c(cc3c(=O)[nH]2)CCCC4)c1 [Example 143, 1-(4-Oxo-3,4,6,7,8,9-hexahydro-benzo[g]quinazolin-2-yl)-1H-pyrazole-4-carboxylic acid] | 75
20 | 0.0398 | O=C(O)c1cnn(-c2nc3ccc4c(c3c(=O)[nH]2)CCCC4)c1 [Example 144, 1-(1-Oxo-1,2,7,8,9,10-hexahydro-benzo[f]quinazolin-3-yl)-1H-pyrazole-4-carboxylic acid] | 42
21 | 0.398 | Cc1cc(C)c2c(=O)[nH]c(-n3cc(C(=O)O)cn3)nc2c1 [Example 145, 1-(5,7-Dimethyl-4-oxo-3,4-dihydro-quinazolin-2-yl)-1H-pyrazole-4-carboxylic acid] | 16
22 | 0.126 | CC(C)c1ccc2c(=O)[nH]c(-n3cc(C(=O)O)cn3)nc2c1 [Example 146, 1-(7-Isopropyl-4-oxo-3,4-dihydro-quinazolin-2-yl)-1H-pyrazole-4-carboxylic acid] | 16
23 | 0.398 | CC(C)(C)c1ccc2c(=O)[nH]c(-n3cc(C(=O)O)cn3)nc2c1 [Example 147, 1-(7-tert-Butyl-4-oxo-3,4-dihydro-quinazolin-2-yl)-1H-pyrazole-4-carboxylic acid] | 11
24 | 0.126 | O=C(O)c1cnn(-c2nc3cc(OC(F)(F)F)ccc3c(=O)[nH]2)c1 [Example 148, 1-(4-Oxo-7-trifluoromethoxy-3,4-dihydro-quinazolin-2-yl)-1H-pyrazole-4-carboxylic acid] | 10
25 | 0.398 | CC(C)Oc1ccc2c(=O)[nH]c(-n3cc(C(=O)O)cn3)nc2c1 [Example 149, 1-(7-Isopropoxy-4-oxo-3,4-dihydro-quinazolin-2-yl)-1H-pyrazole-4-carboxylic acid] | 9
26 | 0.158 | CN(C)c1ccc2c(=O)[nH]c(-n3cc(C(=O)O)cn3)nc2c1 [Example 150, 1-(7-Dimethylamino-4-oxo-3,4-dihydro-quinazolin-2-yl)-1H-pyrazole-4-carboxylic acid] | 24
27 | 0.631 | CN(C)c1cccc2nc(-n3cc(C(=O)O)cn3)[nH]c(=O)c12 [Example 151, 1-(5-Dimethylamino-4-oxo-3,4-dihydro-quinazolin-2-yl)-1H-pyrazole-4-carboxylic acid] | 11
